Measured values published in patent publication US20080260774A1, “Alpha-galactosyl ceramide analogs and their use as immunotherapies” (priority 2007, published 2008).
“Also recorded” adds a separate entry of the source.

Assays:
C57BL/6 mice = experiment: Expansion of NKT subsets in spleens of C57BL/6 mice; assay type: in vivo; details: C57BL/6 Wt, 72 h post IV injection, 0.1 μg per mouse
TC1 tumor = experiment: Tumor infiltrating lymphocytes in lung cancer (TC1) by flow cytometry; assay type: in vivo; details: day 21; 0.1 μg/mouse, once/week; normalized to DMSO
B16 melanoma = experiment: Tumor infiltrating lymphocytes in B16 melanoma by flow cytometry; assay type: in vivo; details: day 21; 0.1 μg/mouse, once/week; normalized to DMSO
Sphingomonas capsulata = experiment: Antibacterial efficacy in Sphingomonas capsulata infected mice; assay type: in vivo, mouse
From the text: Sphingomonas capsulata is a common environmental bacterial strain that is found in many places such as the air and water. It can be easily identified on nutrient agar plates because of its yellow colony color. […] Since the antibacterial activities of glycolipid antigens are mediated through the activation of NKT cells by glycolipid bound-CD1-d molecules, evaluation of the antibacterial efficacies using the disease model of Sphingomonas capsulata infection will focus on the impact of the NKT mediated pathway that is activated by glycolipid bindings. Six to eight week old female C57BL/6 mice were injected IP with Sphingomonas capsulate cells. […] Twenty-four hours after bacterial infection, livers were removed from mice and homogenized. Colony formation units (CFU) of Sphingomonas capsulate in liver homogenates were determined by plating diluted samples on nutrient plates. Colonies were counted after incubation for 48 hours at 37° C. […] To confirm the antibacterial efficacies of these α-GalCer analogs, another study was conducted to repeat the study by treating infected mice with 50 μg/kg in the same disease model. […] Six to eight week old female C57BL/6 mice were injected IP with 5×10^8 Sphingomonas capsulate cells. Mice were grouped into treatment and control groups with 4-6 mice per group. Four hours after the infection, mice in the treatment group were injected IP with testing α-GalCer analogs at 50 or 100 μg/kg, and the control group mice were injected with same volumes of PBS. Twenty-four hours after bacterial infection, mice from all groups were sacrificed. Livers were removed from mice and homogenized in 0.9% NaCl, 0.02% Tween 80 using tissue homogenizers. Colony formation units (CFU) of Sphingomonas capsulate in liver homogenates were determined by plating diluted samples on nutrient plates. Colonies were counted after incubation for 48 hours at 37° C.

[1] = tested on: human naïve NKTs (CD161^+CD3^+); experiment: Cytokine/chemokine secretion by human naïve CD161+CD3+ NKTs co-cultured with autologous immature CD14+ DCs; assay type: cell-based; details: normalized to DMSO control
naïve CD161^+/CD3^+ NKTs = experiment: Human NKT TCR activation (phosphoproteins), glycolipid presented by HeLa, HeLa-CD1d or iDCs, 10 μg/ml; assay type: cell-based; details: 10 μg/ml
BALB/c mice [2] = experiment: Mouse serum cytokines/chemokines after IV, SubQ or IM injection; assay type: in vivo; details: IV route
BALB/c mice [3] = experiment: Expansion/activation of mouse splenocyte subpopulations 72 h after injection; assay type: in vivo
[4] = tested on: syngeneic lung cancer (TC1) cells; experiment: Lung cancer model in mice (TC1, IV inoculation); assay type: in vivo, mouse; details: IV administration
[5] = tested on: syngeneic breast cancer (4T1); experiment: Breast cancer model in mice (4T1, SubQ inoculation); assay type: in vivo, mouse; details: mice bearing breast cancer
tetanus toxoid (TT) = details: mouse, in vivo
[6] = tested on: H5 of avian influenza viruses (pHA); assay type: in vivo, mouse
[7] = assay type: in vivo, mouse; details: two weeks after the third vaccination
Protocol: BALB/c mice were injected IM with globo H-DT/α-GalCer or globo H-DT/α-GalCer analogs three times at two weeks interval. Sera was collected two weeks after the third vaccination and tested for IgG and IgM anti-globo H-specific antibody at 1:480 and 1:240 dilution, respectively, using a glycan microarray.

[8] = tested on: FLU-A virus serotype H1N1 (WSN); experiment: Cytopathetic effect / virus titer in MDCK cells infected with H1N1 (WSN); assay type: cell-based; details: pretreated at 10 μg/ml for four hours; 10TCID50; 48 hours post-infection
Protocol: FIG. 60(A-B) show the cytopathetic effect (CPE) of Madin-Darby canine kidney (MDCK) cells in vitro. MDCK cells were pretreated with vehicle, α-GalCer or one of the α-GalCer analogs C13, C14 or C16 at 10 μg/ml for four hours, followed by infection with FLU-A virus serotype H1N1 (WSN) at 10TCID50.
BALB/c mice were treated via intranasal route with control, α-GalCer (C1) or the α-GalCer analogs C13, C14 or C16 at one hour prior to virus challenge with H1N1 (WSN). […] In general, certain α-GalCer analogs may exert direct anti-viral effects, or act indirectly via immune stimulation. […] MDCK cells were pretreated with vehicle, α-GalCer or one of the α-GalCer analogs C13, C14 or C16 at 10 μg/ml for four hours, followed by infection with FLU-A virus serotype H1N1 (WSN) at 10TCID50.

Klebsiella pneumoniae = experiment: Antibacterial efficacy in K. pneumoniae infected mice; assay type: in vivo, mouse; details: 100 μg/kg twice at 4-hour and 8-hour after infection
Protocol: K. pneumoniae is a Gram negative bacterium that causes liver abscess and is becoming a serious disease in Taiwan among diabetic patients. […] BALB/cByl female mice were administered a single dose of live K. pneumoniae by oral gavage. […] Twenty four hours after infection, both the liver and lungs were collected from each mouse, and homogenized. Bacterial counts were determined similarly as described above. BALB/c-Byl female mice (ten mice per group) were administered a single dose (10^6 CFU) of live-K. pneumoniae by oral gavage. Mice in the treatment groups were injected with testing α-GalCer analogs at 100 μg/kg twice at 4-hour and 8-hour after bacterial infection. Mice in the control group were injected with PBS at 4- and 8-hour. Twenty four hours after infection, all mice were sacrificed. Both livers and lungs were collected from each mouse, and homogenized. Bacterial counts were determined similarly as described above.

tumor metastasis = details: mice; cited from earlier work
mouse spleen cells = details: in vitro stimulation; cited from earlier work
[9] = tested on: mycobacterium tuberculosis, Pseudomonas aeruginosa; details: in vivo; cited from earlier work
advanced cancers = details: cited from earlier work

With `CCCCCCCCCCCCCC[C@@H](O)[C@@H](O)[C@H](CO[C@H]1O[C@H](CO)[C@H](O)[C@H](O)[C@H]1O)NC(=O)CCCCCCCCCCc1ccc(-c2ccc(F)cc2)cc1` [C30] as the compound, how does the “total number of NKTs and its two subtypes NKT1 and NKT2” value (C57BL/6 mice) read?
Its value is “increase of total number of NKTs”.

And the “number of tumor infiltrating lymphocytes (CD3+ T, CD8 T, NKs, NKTs)” value (TC1 tumor)?
Its value is “significantly significant increase in the number of TH1-biased tumor infiltrating lymphocytes in lung cancer, as compared with both control and α-GalCer”.

And the “number of tumor infiltrating lymphocytes (CD3+ T, CD8 T, NKs, NKTs)” value (B16 melanoma)?
Its value is “significantly significant increase in the number of TH1-biased tumor infiltrating lymphocytes in melanoma, as compared with both control and α-GalCer”.

And the “CFU numbers (in lungs)” value (Sphingomonas capsulata; 50 μg/kg)?
Its value is “significant in comparison to the untreated group”.

What does the source list for `CCCCCCCCCCCCCCCCCCCCCCCCCC(=O)N[C@@H](CO[C@H]1O[C@H](CO)[C@H](O)[C@H](O)[C@H]1O)[C@H](O)[C@H](O)CCCCCCCCCCCCCC` [C1, α-Galactosyl ceramide, reference compound]?
IFN/IL-4 ratio (TH1/TH2 bias) [1]: more TH2-biased; intracellular phospho-CD3ε (naïve CD161^+/CD3^+ NKTs; presented by DCs): 10.8 folds; intracellular phospho-CD3ε (naïve CD161^+/CD3^+ NKTs; presented by HeLa-CD1d cells): 7.3 folds of control; phospho-ERK1/2 (naïve CD161^+/CD3^+ NKTs; with DCs): 30 folds; phospho-ERK1/2 (naïve CD161^+/CD3^+ NKTs; with HeLa-CD1d cells): 6.6 folds increase; IFN-γ/IL-4 ratio (TH1/TH2 bias) (BALB/c mice [2]; 2 hours, compared with C1): less TH2 responses than C1; serum level of IFN-γ (BALB/c mice [2]; over 72 hours): highest level of IFN-γ when given IV; B cell expansion (BALB/c mice [3]; FIGS. 26E, 28E and 30E): more active than C1; CD8^+ T cell expansion/activation (BALB/c mice [3]; FIGS. 26F, 28F and 30F): more active than C1; B cell expansion/activation (BALB/c mice [3]; SubQ route): significant activities; CD4^+ T cells (BALB/c mice [3]; SubQ route): most effective; also recorded: more active over control; total number of NKTs and its two subtypes NKT1 and NKT2 (C57BL/6 mice): increase of total number of NKTs; anti-cancer efficacy compared with C1 [4]: significantly greater anti-cancer efficacy than C1; effect of route of administration (SubQ vs IV) on anti-tumor efficacy [5]: more effective than IV delivery in prolonging the survival of mice bearing breast cancer; also recorded: statistically better efficacy with SubQ delivery over IV route; antibody production compared with Alum (tetanus toxoid (TT)): significantly greater antibody production than Alum; antibody response relative to conventional vaccine (tetanus toxoid (TT)): ~2 fold; level of antibody after delayed boost compared with TT+Alum (tetanus toxoid (TT)): twice as high as those given TT+Alum; adjuvant activities in enhancing the anti-HAc antibody titer ([6]; 0.2 μg pHAc): better adjuvant activities than the others in enhancing the antibody titer; anti-H5 responses ([6]; 5-45 μg H5 DNA vaccine, three weeks after first immunization): enhanced by α-GalCer at 5-30 μg H5 DNA, but reached a plateau at 45 μg; adjuvant effect on anti-H5 titers ([6]; H5 DNA dose 0.2-5 μg, two weeks after second immunization): evident for all low dosages tested; anti-HA-specific IgG antibody ([6]; three weeks after one dose immunization): enhanced; anti-globo H IgM antibody ([7]; 1:240 dilution): not in C1 treated group; anti-globo H IgG antibody ([7]; 1:480 dilution): elicited significant IgG antibody production; entry/replication of H1N1 virus (virus titer) [8]: slight inhibition of the entry/replication of H1N1 virus in vitro; difference in the values of the CFU per gram liver among efficacious groups (Sphingomonas capsulata; 50 μg/kg): not statistically significant; CFU numbers in liver (Sphingomonas capsulata; 100 μg/kg IP, 24 hour after bacterial infection): significantly lower than the control group; bacterial loads in mouse lung and liver (Klebsiella pneumoniae): significantly reduce the bacterial loads in mouse lung and liver; tumor metastasis (tumor metastasis): suppress tumor metastasis to liver, lung and lymph nodes; NKT proliferation and cytokine production (mouse spleen cells): proliferation of NKTs and production of both IFN-[…] and IL-4; antibacterial activities [9]: amelioration of mycobacterium tuberculosis infections, clearance of lung infection by Pseudomonas aeruginosa; toxicity (advanced cancers; human, in vivo): without any toxicity; clinical anti-tumor outcome (advanced cancers; α-GalCer or α-GalCer-loaded iDCs, phase I): no durable tumor regression, stable disease was noted in several patients
